# Source: patent US20170281575A1, “BLT2 AGONISTS FOR THE TREATMENT OF PAIN” (FRAUNHOFER-GESELLSCHAFT ZUR FÖERDERUNG DER ANGEWANDTEN …, priority 2014, published 2017)
# Columns and labels:
# [1] = test system: mice; experiment: Thermal pain thresholds after intraplantar injection (Hargreaves, radiant heat); assay type: in vivo; conditions: CAY10583 10 μl, 5 μM intraplantarly, compared to vehicle
# Experimental: FIG. 5: BLT2 activation decreases thermal pain thresholds in mice. CAY10583 (10 μl, 5 μM) or vehicle was administered intraplantarly. Thermal thresholds were determined at the indicated time points. Data are presented as mean±S.E.M. of 6 animals. Two way ANOVA/Bonferroni *P<0.05, **P<0.005, ****P<0.0005.
# All animal experiments were performed according to the recommendations in the Guide for the Care and Use of Laboratory Animals of the National Institutes of Health and approved by the local Ethics Committees for Animal Research (Darmstadt). For all behavioral experiments the inventors used only 6-12 weeks old male C57BL/6N mice purchased from commercial breeding companies (Charles River, Sulzfeld, Germany, Janvier, Le Geneset-Saint-Isle, FR). To compare mechanical thresholds the inventors used age and sex matched littermates as control.
# For the determination of mechanical allodynia or thermal hypersensitivity, mice were kept in test cages on an elevated grid for at least 2 hours to allow accommodation. […] The non-injected and injected paws were measured alternately in intervals of 5-10 min. […]
# [2] = test system: TRPV1; experiment: Calcium imaging of capsaicin double-stimulated DRG neurons (TRPV1 sensitization); assay type: cell-based, murine; conditions: for effect on TRPV1 sensitization by LTB4 (100 nM or 1 μM), FIG. 3 legend: U73502 1 μM; for effect on TRPV1 sensitization by LTB4 (100 nM or 1 μM), FIG. 3 legend / effect on TRPV1 sensitization induced by 100 nM LTB4: CAY10583 400 nM; for effect on TRPV1 sensitization induced by 100 nM LTB4: U75302 1 μM, 2 minute pretreatment
# Experimental: (A) DRG neurons were double stimulated with capsaicin (200 nM, 15 s each) and incubated with either vehicle or LTB4 (100 nM) for two minutes prior to the second capsaicin stimulation. (B) Dose-dependent difference in ratio between the first and the second capsaicin response using the same protocol as described in (A). Data represent the mean±SEM of the following number of neurons (n=20-86); ANOVA Kruskal-Wallis test; Dunn's multiple comparisons test *p<0.05, ****p<0.0001 student's t-test.
# FIG. 3: BLT1 mediates TRPV1-sensitization and BLT2 mediates TRPV1-desensitization by LTB4. (A) DRG neurons were double stimulated with capsaicin (200 nM, 15 s each) and incubated with either vehicle or the indicated compounds for two minutes prior to the second capsaicin stimulation. […] Data represent mean±SEM 20-105 cells. ANOVA Kruskal-Wallis test; Dunn's multiple comparisons test *p<0.05, **p<0.01, ****p<0.0001 student's t-test; n.s. not significant.
# FIG. 4: BLT2 activation inhibits […] by EP4 and Bradykinin. (A) DRG neurons were double stimulated with capsaicin (200 nM, 15 s each) and incubated with either the EP4 agonist ONOae329 (500 nM) or with ONOae329 and CAY10583 (400 nM) together for two minutes prior to the second capsaicin stimulation. (B) Difference in ratio between the first and the second capsaicin response using the same protocol as described in panel A. Data represent the mean±SEM of the following number of neurons: 52 (vehicle), 109 (ONOae329), 106 (ONOae329+CAY10583); One-Way ANOVA, Dunn's multiple comparisons test; **p<0.0096. (C+D) same as panel A+B except that 500 nM bradykinin was used for TRPV1 sensitization. Data represent the mean±SEM of the following number of neurons: 33 (vehicle), 83 (bradykinin), 93 (bradykinin+CAY10583); One-Way ANOVA, Holm-Sidak's multiple comparisons test; *p=0.0126
# Murine DRGs were dissected from spinal segments and directly transferred to ice cold HBSS with CaCl2 and MgCl2 (Invitrogen, Carsbad, Calif., USA). Next, isolated DRGs were incubated with collagenase/dispase (500 U/ml Collagenase; 2.5 U/ml Dispase) in neurobasal medium containing L-glutamine [2 mM] penicillin (100 U/ml), streptomycin (100 μg/ml), B-27 and gentamicin (50 μg/ml) (all from Invitrogen, Carlsbad, Calif., USA) at 37° C. for 75 min. After removal of the collagenase/dispase-solution, cells were washed twice with neurobasal medium containing 10% FCS and incubated for 10 min with 0.05% trypsin (Invitrogen, Carlsbad, Calif., USA). The washing steps were repeated and the cells were mechanically dissociated with a 1 ml Gilson pipette. Finally, the neurons were plated on poly-l-lysine (Sigma, Deisenhofen, Germany) coated glass cover slips and incubated with neurobasal medium containing L-glutamine [2 mM] penicillin (100 U/ml), streptomycin (100 μg/ml), B-27 and gentamicin (50 μg/ml) over night until assessment by calcium imaging.
# Calcium-Imaging experiments were performed as published previously. Briefly, Leica Calcium-imaging setup was used, consisting of a Leica DMI 4000 b inverted microscope equipped with a DFC360 FX (CCD-) camera, Fura-2 filters and an N-Plan 10×/0.25 Ph1 objective (all from Leica Microsystems, Wetzlar, Germany). Images were taken every 2 seconds and processed with the LAS AF-software. For each experiment the inventors chose an area with large cell numbers and monitored 40-110 cells simultaneously. Calcium-Imaging experiments were performed using DRG-neurons 24-48 hours after preparation. […]
# [3] = DRG neurons, capsaicin 200 nM, LY2552833 10 μM
compound,measurement,setting,value
"CCCCC(=O)N(Cc1ccc(-c2ccccc2C(=O)O)cc1)c1ccccc1 [CAY10583, 4′-[[(1-oxopentyl)phenylamino]methyl]-[1,1′-biphenyl]-2-carboxylic acid]",thermal pain thresholds,[1],significantly increase
same,effect on bradykinin-induced sensitization of TRPV1 through PKC,"[2]; DRG neurons, 500 nM bradykinin with CAY10583 400 nM",significantly decreased
same,"effect on TRPV1 sensitization by LTB4 (100 nM or 1 μM), FIG. 3 legend","[2]; DRG neurons, LY2552833 10 μM",reduced
same,effect by itself on capsaicin-induced TRPV1 activation,"[2]; DRG neurons, capsaicin 200 nM, CAY10583 400 nM alone",no effect
same,effect on TRPV1 sensitization induced by 100 nM LTB4,[2]; [3],abolished
same,effect on ONOae329-induced TRPV1 sensitization,"[2]; murine DRG neurons, ONOae329 500 nM together with CAY10583 400 nM",abolished
"CCCCC/C=C\C[C@@H](O)/C=C/C=C/C=C\[C@@H](O)CCCC(=O)O [LTB4, Leucotriene (LT) B4]","TRPV1 sensitization in DRG neurons, dose dependence, FIG. 1 legend","[2]; DRG neurons, capsaicin 200 nM double stimulation",dose dependently sensitizes TRPV1
same,enhanced response (TRPV1 sensitization) at higher LTB4 concentrations,"[2]; murine DRG neurons, 200-1000 nM LTB4 prior to second capsaicin stimulation",reduced
same,capsaicin-induced intracellular calcium increases,"[2]; murine DRG neurons, preincubation with 100 nM LTB4 for two minutes prior to second capsaicin (200 nM) stimulation",doubled
CCc1cc(C(C)=O)c(O)cc1OCCCCCC(C)(C)c1nn[nH]n1 [LY2552833],"effect on TRPV1 sensitization by LTB4 (100 nM or 1 μM), FIG. 3 legend","[2]; DRG neurons, LY2552833 10 μM",increases TRPV1 sensitization
same,effect on TRPV1 sensitization by 1000 nM LTB4,[2]; [3],increased
same,effect on TRPV1 sensitization induced by 100 nM LTB4,[2]; [3],no significant effect
COCc1ccccc1CC[C@H](O)/C=C/[C@H]1[C@H](O)CC(=O)[C@@H]1SCCCSCC(=O)O [ONOae329],sensitization of TRPV1 responses to capsaicin,"[2]; murine DRG neurons, pretreatment with ONOae329 500 nM",strong sensitization
"CCCCC/C=C\C[C@@H](O)/C=C/c1cccc(C[C@@H](O)CCCCO)n1 [U75302, 6-(6-(3R-hydroxy-1E,5Z-undecadien-1-yl)-2-pyridinyl)-1,5S-hexanediol]","effect on TRPV1 sensitization by LTB4 (100 nM or 1 μM), FIG. 3 legend","[2]; DRG neurons, LY2552833 10 μM",reduced
same,effect on TRPV1 sensitization induced by 100 nM LTB4,[2]; [3],able to abolish
